Measured values taken from US20250129135A1, “Multi-Agonist and Use Thereof” (priority 2021, published 2025).
Values belong to the molecule of their own block, whether it stands above or below them. Starred links: 1 amine or outer side, 2 acyl side, 3 side chain; linkers in the order of their positions; H or OH if unused. Non-standard residues stand in square brackets, D forms with d. Residues, ends and D or L forms follow the SMILES beside them. Groups on a side chain read outwards from the residue. *: point of attachment. C20 diacid = O=C(O)CCCCCCCCCCCCCCCCCCC(=O)*; αMePhe(2-F) = C[C@](N)(Cc1ccccc1F)C(=O)O; γGlu = O=C(O)[C@H](CCC(=O)[*:2])N[*:1]; αMeL = CC(C)C[C@](C)(N)C(=O)O; AEEA = NCCOCCOCC(=O)O; Aib = CC(C)(N)C(=O)O

Experiments:
Human GIP R = biological target: T1, Human GIP R (Homo sapiens, UniProt P48546); assay: cAMP (HTRF) activity in CHO cells stably overexpressing GIP receptor; format: cell-based; conditions: for Human GIP R Rel. A (Relative Activity): EC50 of human GIP / EC50 of compound; for EC50: stable transfected cell cAMP activity, at least 3 independent tests
T1 construct: expressed in transfected cells; host or cells: CHO
T1 sequence (P48546 22-466): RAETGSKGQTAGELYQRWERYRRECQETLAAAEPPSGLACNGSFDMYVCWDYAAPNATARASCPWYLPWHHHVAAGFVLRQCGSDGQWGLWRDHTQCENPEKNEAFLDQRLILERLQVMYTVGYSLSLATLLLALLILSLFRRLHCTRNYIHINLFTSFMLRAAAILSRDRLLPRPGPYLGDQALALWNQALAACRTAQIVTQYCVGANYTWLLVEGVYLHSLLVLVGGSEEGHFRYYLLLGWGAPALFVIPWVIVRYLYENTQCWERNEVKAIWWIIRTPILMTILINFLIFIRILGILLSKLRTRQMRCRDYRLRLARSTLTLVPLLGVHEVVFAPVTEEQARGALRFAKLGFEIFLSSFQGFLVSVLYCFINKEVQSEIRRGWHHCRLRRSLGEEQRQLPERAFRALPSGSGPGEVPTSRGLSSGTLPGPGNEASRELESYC
Summary of the method: (§1)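 Cells resuspended in HBSS are incubated with compound for 60 min at room temperature, then with HTRF cAMP detection reagent for a further 60 min. Concentration-response fits give agonist EC50 values in nM.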

3T3-L1 adipocytes = conditions: for Rel. A (Relative Activity) on 3T3-L1 adipocyte: relative to GIP
Summary of the method: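 Compound-induced cAMP was measured in mature 3T3-L1 adipocytes after 60 min room-temperature exposure to a 10-concentration, 3-fold dilution series, followed by 60 min with kit detection reagent and curve fitting. Differentiation used IBMX/dexamethasone/insulin (5 days), insulin with 10 uM rosiglitazone (3 days), then 2–3 days in 10% FBS.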

C57 BL/6J DIO mice = assay: In vivo pharmacodynamics in high-fat diet induced obesity (DIO) mice; design: species or system mouse; conditions: Mean±SEM; for LDL-C / TC (total cholesterol) / TG (plasma triglycerides) / Blood sugar (fasting blood glucose) / Insulin (blood): Day 15
Summary of the method: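 DIO mice (60 kcal% fat diet) dosed subcutaneously in 1×PBS, 5 ml/kg, every three days for 15 days. Daily body weight and food intake as % change from baseline; day 15 fasting glucose, plasma TC, LDL-C, TG, insulin and liver TG. Mean±SEM, one-way ANOVA with Dunnett's versus vehicle.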

[1] = Rat pharmacokinetics (PK) study; format: in vivo; conditions: sc, male SD rats, subcutaneous 30 nmol/kg, plasma
Experimental: 7˜9 weeks old male SD rats (220-250 g, 3 rats/group) were subjected to subcutaneous injection of 30 nmol/kg compound. After administration, blood was collected through the jugular vein at time points 0.25, 2, 4, 8, 12, 16, 24, 48, 96, 120, and 144 hours. The blood was processed to obtain plasma samples and analyzed using LC-MS/MS. The blood concentration time curve was analyzed using Phoenix WinNonlin version 6.3 software (non compartment model), and PK parameters and half-life were calculated.

Human GLP-1R = Human GLP-1R (Homo sapiens, UniProt P43220); assay: cAMP (HTRF) activity in HEK-293 cells stably overexpressing human GLP-1 receptor; format: cell-based; design: expressed in transfected cells; host or cells: HEK-293; conditions: for Human GLP-1R Rel. A (Relative Activity): EC50 of human GLP-1 (7-37) / EC50 of compound; for EC50: stable transfected cell cAMP activity, at least 3 independent tests
Summary of the method: as §1

Sequence of Human GLP-1R (P43220 24-463): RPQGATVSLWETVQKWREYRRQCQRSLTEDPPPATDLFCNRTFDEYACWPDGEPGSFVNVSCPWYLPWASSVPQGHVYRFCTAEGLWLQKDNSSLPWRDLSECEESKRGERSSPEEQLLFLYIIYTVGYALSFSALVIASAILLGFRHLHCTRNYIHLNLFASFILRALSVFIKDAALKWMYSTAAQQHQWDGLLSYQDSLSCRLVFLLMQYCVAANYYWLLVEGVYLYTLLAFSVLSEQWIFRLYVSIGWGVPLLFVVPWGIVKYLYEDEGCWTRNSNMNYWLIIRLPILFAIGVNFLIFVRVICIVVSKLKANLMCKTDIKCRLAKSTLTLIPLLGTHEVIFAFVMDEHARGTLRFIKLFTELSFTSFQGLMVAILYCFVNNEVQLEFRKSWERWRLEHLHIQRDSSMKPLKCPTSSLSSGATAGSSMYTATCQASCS

Compound: CC[C@H](C)[C@H](NC(=O)[C@H](Cc1ccccc1)NC(=O)[C@H](C)NC(=O)C(C)(C)NC(=O)[C@H](CCC(N)=O)NC(=O)[C@H](C)NC(=O)[C@H](CCCCNC(=O)COCCOCCNC(=O)COCCOCCNC(=O)CC[C@H](NC(=O)CCCCCCCCCCCCCCCCCCC(=O)O)C(=O)O)NC(=O)[C@H](CCCCN)NC(=O)[C@H](CC(=O)O)NC(=O)[C@H](CC(C)C)NC(=O)[C@H](Cc1ccccc1)NC(=O)[C@@H](NC(=O)[C@H](CO)NC(=O)[C@H](Cc1ccc(O)cc1)NC(=O)[C@H](CC(=O)O)NC(=O)[C@H](CO)NC(=O)[C@@H](NC(=O)[C@](C)(Cc1ccccc1F)NC(=O)[C@@H](NC(=O)CNC(=O)[C@H](CCC(N)=O)NC(=O)C(C)(C)NC(=O)[C@@H](N)Cc1ccc(O)cc1)[C@@H](C)O)[C@@H](C)O)[C@@H](C)CC)C(=O)N[C@@H](CCC(=O)O)C(=O)N[C@@H](Cc1ccc(O)cc1)C(=O)N[C@@H](CC(C)C)C(=O)N[C@@H](CC(C)C)C(=O)N[C@@H](CCC(=O)O)C(=O)NC(C)(C)C(=O)N[C@@H](Cc1c[nH]cn1)C(=O)N1CCC[C@H]1C(=O)N[C@@H](CO)C(=O)N[C@@H](CO)C(=O)NCC(=O)N[C@@H](C)C(=O)N1CCC[C@H]1C(=O)N1CCC[C@H]1C(=O)N1CCC[C@H]1C(=O)N[C@@H](CO)C(N)=O [Compound 18]
Human GIP R Rel. A (Relative Activity) (Human GIP R): 861.90%
EC50 (Human GIP R): 0.021 nM
EC50 (3T3-L1 adipocytes): 1.99 nM
Rel. A (Relative Activity) on 3T3-L1 adipocyte (3T3-L1 adipocytes): 191.34%
Weight change (C57 BL/6J DIO mice; Table 6-1, 3 nmol/kg s.c. Q3D for 15 days): −22.2 ± 0.89%
Weight change (C57 BL/6J DIO mice; Table 6-1, 10 nmol/kg s.c. Q3D for 15 days): −30.6 ± 1.26%
Weight change (C57 BL/6J DIO mice; Table 6-1, 30 nmol/kg s.c. Q3D for 15 days): −45.0 ± 1.52%
LDL-C (C57 BL/6J DIO mice; Table 7-1, 3 nmol/kg): 0.60 ± 0.043 mM
TC (total cholesterol) (C57 BL/6J DIO mice; Table 7-1, 3 nmol/kg): 3.77 ± 0.234 mM
TG (plasma triglycerides) (C57 BL/6J DIO mice; Table 7-1, 3 nmol/kg): 0.90 ± 0.027 mM
LDL-C (C57 BL/6J DIO mice; Table 7-1, 30 nmol/kg): 0.35 ± 0.036 mM
TC (total cholesterol) (C57 BL/6J DIO mice; Table 7-1, 30 nmol/kg): 2.32 ± 0.161 mM
TG (plasma triglycerides) (C57 BL/6J DIO mice; Table 7-1, 30 nmol/kg): 0.61 ± 0.041 mM
Blood sugar (fasting blood glucose) (C57 BL/6J DIO mice; Table 8-1, 3 nmol/kg): 98.5 ± 9.17 mg/dL
Insulin (blood) (C57 BL/6J DIO mice; Table 8-1, 3 nmol/kg): 21.2 ± 3.73 mIU/L
AUC(0-t) [1]: 3.01 µM·h
Cmax [1]: 62.8 nM
Tmax [1]: 16 h
half-life [1]: 15.6 h
Human GLP-1R Rel. A (Relative Activity) (Human GLP-1R): 366.67%
EC50 (Human GLP-1R): 0.012 nM

Human GIP R Rel. A (Relative Activity) (Human GIP R): 1392.31%
EC50 (Human GIP R): 0.013 nM
AUC(0-t) [1]: 3.1 µM·h
Cmax [1]: 78.1 nM
Tmax [1]: 16 h
half-life [1]: 15.7 h
Human GLP-1R Rel. A (Relative Activity) (Human GLP-1R): 115.79%
EC50 (Human GLP-1R): 0.038 nM
Compound: CC[C@H](C)[C@H](NC(=O)[C@H](Cc1ccccc1)NC(=O)[C@H](C)NC(=O)C(C)(C)NC(=O)[C@H](CCC(N)=O)NC(=O)[C@H](C)NC(=O)[C@H](CCCCNC(=O)COCCOCCNC(=O)COCCOCCNC(=O)CC[C@H](NC(=O)CCCCCCCCCCCCCCCCCCC(=O)O)C(=O)O)NC(=O)[C@H](CCCCN)NC(=O)[C@H](CC(=O)O)NC(=O)[C@H](CC(C)C)NC(=O)[C@](C)(CC(C)C)NC(=O)[C@@H](NC(=O)[C@H](CO)NC(=O)[C@H](Cc1ccc(O)cc1)NC(=O)[C@H](CC(=O)O)NC(=O)[C@H](CO)NC(=O)[C@@H](NC(=O)[C@](C)(Cc1ccccc1F)NC(=O)[C@@H](NC(=O)CNC(=O)[C@H](CCC(N)=O)NC(=O)C(C)(C)NC(=O)[C@@H](N)Cc1ccc(O)cc1)[C@@H](C)O)[C@@H](C)O)[C@@H](C)CC)C(=O)N[C@@H](CCC(=O)O)C(=O)N[C@@H](Cc1ccccc1)C(=O)N[C@@H](CC(C)C)C(=O)N[C@@H](CC(C)C)C(=O)N[C@@H](CCC(=O)O)C(=O)N[C@H](C(=O)NCC(=O)N1CCC[C@H]1C(=O)N[C@@H](CO)C(=O)N[C@@H](CO)C(=O)NC(C)(C)C(=O)N[C@@H](Cc1c[nH]cn1)C(=O)N1CCC[C@H]1C(=O)N1CCC[C@H]1C(=O)N1CCC[C@H]1C(=O)N[C@@H](CO)C(N)=O)[C@@H](C)O [Compound 38] (H-Y[Aib]QGT[αMePhe(2-F)]TSDYSI[αMeL]LDKK([AEEA-AEEA-γGlu-C20 diacid])AQ[Aib]AFIEFLLETGPSS[Aib]HPPPS-NH2; N-terminus assumed)
EC50 (3T3-L1 adipocytes): 3.24 nM
Rel. A (Relative Activity) on 3T3-L1 adipocyte (3T3-L1 adipocytes): 117.42%
Weight change (C57 BL/6J DIO mice; Table 6-2, 3 nmol/kg s.c. Q3D for 15 days): −19.0 ± 1.30%
Weight change (C57 BL/6J DIO mice; Table 6-2, 10 nmol/kg s.c. Q3D for 15 days): −25.7 ± 2.26%
LDL-C (C57 BL/6J DIO mice; Table 7-2, 3 nmol/kg): 0.39 ± 0.025 mM
TC (total cholesterol) (C57 BL/6J DIO mice; Table 7-2, 3 nmol/kg): 3.49 ± 0.151 mM
TG (plasma triglycerides) (C57 BL/6J DIO mice; Table 7-2, 3 nmol/kg): 0.74 ± 0.019 mM
LDL-C (C57 BL/6J DIO mice; Table 7-2, 10 nmol/kg): 0.35 ± 0.053 mM
TC (total cholesterol) (C57 BL/6J DIO mice; Table 7-2, 10 nmol/kg): 3.12 ± 0.186 mM
TG (plasma triglycerides) (C57 BL/6J DIO mice; Table 7-2, 10 nmol/kg): 0.63 ± 0.051 mM
Blood sugar (fasting blood glucose) (C57 BL/6J DIO mice; Table 8-2, 3 nmol/kg): 151.7 ± 8.46 mg/dL
Insulin (blood) (C57 BL/6J DIO mice; Table 8-2, 3 nmol/kg): 24.9 ± 5.43 mIU/L
